Structures can show the parent of a compound that is named as a salt.

The term IC50 denotes the point on the concentration scale where inhibition reaches its midpoint.

For this assay, the target named is MK-2 (Homo sapiens, UniProt P49137). Briefly: Determination of MK-2 IC50 (anion exchange resin capture assay, HSP-peptide phosphorylation). In kind it is biochemical. As to conditions: read-out: MK-2 Avg. IC50.
Sequence of MK-2 (P49137 whole entry, species assumed): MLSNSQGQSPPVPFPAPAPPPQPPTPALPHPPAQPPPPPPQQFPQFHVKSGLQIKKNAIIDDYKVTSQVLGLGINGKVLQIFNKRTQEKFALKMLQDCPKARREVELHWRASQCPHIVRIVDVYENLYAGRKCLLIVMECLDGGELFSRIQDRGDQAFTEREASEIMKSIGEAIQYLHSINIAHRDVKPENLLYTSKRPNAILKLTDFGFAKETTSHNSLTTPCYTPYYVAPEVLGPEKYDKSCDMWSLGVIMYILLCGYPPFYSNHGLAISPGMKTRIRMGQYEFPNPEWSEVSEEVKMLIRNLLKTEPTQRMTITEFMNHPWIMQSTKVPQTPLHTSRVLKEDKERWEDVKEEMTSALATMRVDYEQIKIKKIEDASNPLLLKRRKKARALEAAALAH
Method: The phosphorylation of HSP-peptide ([sequence]) by MAPKAPK2 was measured using an anion exchange resin capture assay method. […] The reaction was terminated and [γ^33P]ATP was removed from solution by the addition of 150 μl of AG 1×8 ion exchange resin in 900 mM sodium formate pH 3.0. A 50 μl aliquot of head volume was removed from the quenched reaction mixture and added to a 96-well plate, 150 μl of Microscint-40 (Packard) was added and the amount of phosphorylated-peptide was determined. Allow the Microscint to sit in the plates for 60 minutes prior to counting.
Compounds are evaluated as potential inhibitors of the MK2 kinase by measuring their effects on MK2 phosphorylation of the peptide substrate. Compounds may be screened initially at two concentrations prior to determination of IC50 values. Screening results are expressed as percent inhibition at the concentrations of compound tested. For IC50 value determinations, compounds are tested at six concentrations in ten-fold serial dilutions with each concentration tested in triplicate. Results are expressed as IC50 values in micromolar. The assay is performed at a final concentration of 2% DMSO.
Compounds are evaluated as potential inhibitors of the MK-2 kinase by measuring their effects on MK-2 phosphorylation of the peptide substrate. Compounds may be screened initially at two concentrations prior to determination of IC50 values. Screening results are expressed as percent inhibition at the concentrations of compound tested. For IC50 value determinations, compounds are tested at six concentrations in ten-fold serial dilutions with each concentration tested in triplicate. Results are expressed as IC50 values in micromolar. The assay is performed at a final concentration of 2% DMSO.
For the compound `CS(=O)(=O)Nc1cccc(-c2cc(-c3cc4n(n3)CCNC4=O)ccn2)c1` [Example 85, dihydrochloride], the IC50 turned out to be 2290 nM. Regarding `O=C1NCCn2nc(-c3ccnc(-c4cccc(Cl)c4)c3)c(Br)c21` [Example 72, hydrochloride], the half-maximal inhibitory concentration (IC50) was found to be 1390 nM. As for `COc1ccc(-c2cc(-c3cc(C(=O)O)n(CCN)n3)ccn2)cc1` [Example 12, trifluoroacetate], the figure is 168 nM; as for `O=C1NCCn2nc(-c3ccnc(-c4cncnc4)c3)cc21` [Example 81, hydrochloride], 1990 nM.

As for `O=C1NCCn2nc(-c3ccnc(-c4cccc(OCCN5CCCC5)c4)c3)cc21` [Example 98, 2-{2-[3-(2-pyrrolidin-1-ylethoxy)phenyl]pyridin-4-yl}-6,7-dihydropyrazolo[1,5-a]pyrazin-4(5H)-one], the IC50 is 3270 nM. On to `COc1ccc(-c2cc(-c3cc4n(n3)CCCNC4=O)ccn2)cc1` [Example 60], for which the IC50 is 1090 nM. On to `O=C1NCCn2nc(-c3ccnc(-c4ccc(CN5CCOCC5)cc4)c3)cc21` [Example 94, bis(trifluoroacetate)], for which the IC50 is 2990 nM. Consider `O=C1NCCn2nc(-c3ccnc(-c4ccc[nH]4)c3)cc21` [Example 91, dihydrochloride], for which the IC50 is 2790 nM. Then `NCCn1nc(-c2ccnc(-c3cnc4ccccc4c3)c2)cc1C(=O)O` [Example 1, dihydrochloride], with 26.9 nM; and `O=C1NCCn2nc(-c3ccnc(-c4ccccn4)c3)cc21` [Example 111, 2-(2,2′-bipyridin-4-yl)-6,7-dihydropyrazolo[1,5-a]pyrazin-4(5H)-one], with 5340 nM; and `CCOC(=O)c1cc(-c2ccnc(-c3ccc(CO)cc3)c2)nn1CCN` [Example 96, trifluoroacetate], with 3250 nM. As to `CCCn1nc(-c2ccnc(-n3ccnc3)c2)cc1C(=O)O` [Example 127, 3-[2-(1H-imidazol-1-yl)pyridin-4-yl]-1-propyl-1H-pyrazole-5-carboxylic acid], the IC50 was 14300 nM.

`O=C1NCCn2nc(-c3ccnc(-c4ccccc4F)c3)cc21` [Example 93]: the IC50 was found to be 2950 nM. In the case of `CN(C)c1ncnc2ccc(-c3cc(-c4cc5n(n4)CCNC5=O)ccn3)cc12` [Example 86], the IC50 was 2400 nM. Turning to `O=C1NCCn2nc(-c3ccnc(-c4ccc5cc[nH]c5c4)c3)cc21` [Example 55, hydrochloride], the concentration for half-maximal inhibition (IC50) was 930 nM. As for `CN(C)c1ccc(-c2cc(-c3cc4n(n3)CCCNC4=O)ccn2)cc1` [Example 100, 2-{2-[4-(dimethylamino)phenyl]pyridin-4-yl}-5,6,7,8-tetrahydro-4H-pyrazolo[1,5-a][1,4]diazepin-4-one trifluoroacetate], the figure is 3440 nM; as for `O=C(O)c1cc(-c2ccnc(/C=C/c3ccccc3)c2)nn1CCCNCCc1ccc(Br)cc1` [Example 25, trifluoroacetate], 315 nM. With `NCCCn1nc(-c2ccnc(-c3cnc4ccccc4c3)c2)cc1C(=O)O` [Example 7], the IC50 stood at 68.6 nM. For `Cc1cc2cc(-c3cc(-c4cc5n(n4)CCNC5=O)ccn3)ccc2[nH]1` [Example 92], the IC50 turned out to be 2830 nM. Then `O=C1NCCn2nc(-c3ccnc(-c4cccc(Cl)c4)c3)cc21` [Example 44, trifluoroacetate], with 638 nM; and `O=C1NCCCn2nc(-c3ccnc(-c4cccc(CO)c4)c3)cc21` [Example 106, 2-{2-[3-(hydroxymethyl)phenyl]pyridin-4-yl}-5,6,7,8-tetrahydro-4H-pyrazolo[1,5-a][1,4]diazepin-4-one trifluoroacetate], with 4540 nM.

On to `Cc1ccc(C(C)CCNCCn2nc(-c3ccncc3)cc2C(=O)O)o1` (stereo not shown) [Example 134, 1-(2-{[3-(5-methyl-2-furyl)butyl]amino}ethyl)-3-pyridin-4-yl-1H-pyrazole-5-carboxylic acid trifluoroacetate], for which the IC50 worked out at 27200 nM. As for `O=C1NCCn2nc(-c3ccnc(-c4ccc5[nH]ncc5c4)c3)cc21` [Example 16], the figure is 199 nM; as for `O=C1NCCn2nc(-c3ccnc(-c4cccc(OCCN5CCNCC5)c4)c3)cc21` [Example 84], 2130 nM; as for `O=C1NCCn2nc(-c3ccnc(-c4ccc5c(c4)OCCO5)c3)cc21` [Example 76, trifluoroacetate], 1560 nM. Turning to `O=C1NCCn2nc(-c3ccnc(-c4nc5ccccc5[nH]4)c3)cc21` [Example 120, 2-[2-(1H-benzimidazol-2-yl)pyndin-4-yl]-6,7-dihydropyrazolo[1,5-a]pyrazin-4(5H)-one], the IC50 came out at 8920 nM. As for `CS(=O)(=O)c1cccc(-c2cc(-c3cc4n(n3)CCNC4=O)ccn2)c1` [Example 83, trifluoroacetate], the IC50 amounted to 2100 nM. With `COc1cccc(-c2cc(-c3cc(C(=O)O)n(CCN)n3)ccn2)c1` [Example 20, dihydrochloride], the IC50 was 217 nM. Then `O=C1NCCn2nc(-c3ccnc(-n4cccn4)c3)cc21` [Example 103, 2-[2-(1H-pyrazol-1-yl)pyridin-4-yl]-6,7-dihydropyrazolo[1,5-a]pyrazin-4(5H)-one], with 4200 nM; and `COc1ccc(-c2cc(-c3cc4n(n3)CCNC4=O)ccn2)cc1F` [Example 30], with 471 nM. In the case of `CCOC(=O)c1cc(-c2ccnc(-c3cccc(O)c3)c2)nn1CCN` [Example 108, ethyl 1-(2-aminoethyl)-3-[2-(3-hydroxyphenyl)pyridin-4-yl]-1H-pyrazole-5-carboxylate dihydrochloride], the IC50 stood at 4980 nM. As for `CCOC(=O)c1cc(-c2ccnc(-c3cnc4ccccc4c3)c2)nn1CCCN` [Example 139, ethyl 1-(3-aminopropyl)-3-(2-quinolin-3-ylpyridin-4-yl)-1H-pyrazole-5-carboxylate dihydrochloride], the figure is 38600 nM; as for `O=C1NCCCn2nc(-c3ccnc(-c4cccc([N+](=O)[O-])c4)c3)cc21` [Example 66], 1260 nM; as for `O=C1NC(CO)Cn2nc(-c3ccnc(-c4cnc5ccccc5c4)c3)cc21` (stereo not shown) [Example 6], 61.5 nM. As for `O=C1NCCn2nc(-c3ccnc(-c4ccc(CO)cc4)c3)cc21` [Example 54, trifluoroacetate], the figure is 929 nM; as for `O=C1NCCCn2nc(-c3ccnc(-n4cncn4)c3)cc21` [Example 135, 2-[2-(1H-1,2,4-triazol-1-yl)pyridin-4-yl]-5,6,7,8-tetrahydro-4H-pyrazolo[1,5-a][1,4]diazepin-4-one hydrochloride], 28200 nM. On to `NCCCn1nc(-c2cccc(O)c2)cc1C(=O)O` [Example 150, 1-(3-aminopropyl)-3-(3-hydroxyphenyl)-1H-pyrazole-5-carboxylic acid trifluoroacetate], for which the half-maximal inhibitory concentration (IC50) came out at 153000 nM. As for `CN(C)CCOc1ccc(-c2cc(-c3cc4n(n3)CCNC4=O)ccn2)cc1` [Example 46, trifluoroacetate], the figure is 766 nM; as for `O=C1NCCn2nc(-c3ccnc(-c4ccc(Cl)c(Cl)c4)c3)cc21` [Example 144, 2-[2-(3,4-dichlorophenyl)pyridin-4-yl]-6,7-dihydropyrazolo[1,5-a]pyrazin-4(5H)-one trifluoroacetate], 65500 nM; as for `O=C1NCCn2nc(-c3ccnc(-c4cccc([N+](=O)[O-])c4)c3)cc21` [Example 13, dihydrochloride], 171 nM.

In the case of `O=C1NCCn2nc(-c3ccnc(-c4ccoc4)c3)cc21` [Example 73, hydrochloride], the IC50 is 1460 nM. With `O=C1NCCn2nc(-c3ccnc(-c4ccc(F)c(F)c4)c3)cc21` [Example 146, 2-[2-(3,4-difluorophenyl)pyridin-4-yl]-6,7-dihydropyrazolo[1,5-a]pyrazin-4(5H)-one trifluoroacetate], the IC50 is 88900 nM. On to `CN(C)c1ccc(-c2cc(-c3cc4n(n3)CCNC4=O)ccn2)cc1` [Example 74, hydrochloride], for which the IC50 amounted to 1530 nM. With `O=C1NCCn2nc(-c3ccnc(-c4ccc5occc5c4)c3)cc21` [Example 37, trifluoroacetate], the concentration for half-maximal inhibition (IC50) worked out at 543 nM. Then `O=C1NCCn2nc(-c3ccnc(-c4ccsc4)c3)cc21` [Example 75], with 1550 nM; and `O=C1NCCn2nc(-c3ccnc(-c4cnc5ccccc5c4)c3)cc21` [Example 19, dihydrochloride], with 216 nM.

As to `NCCCn1nc(-c2ccnc(-c3ccc(O)cc3)c2)cc1C(=O)O` [Example 8], the IC50 worked out at 102 nM. On to `O=C1NCCn2nc(-c3ccnc(-c4cccc(Cl)c4)c3)c(Cl)c21` [Example 61, 3-chloro-2-[2-(3-chlorophenyl)pyridin-4-yl]-6,7-dihydropyrazolo[1,5-a]pyrazin-4(5H)-one], for which the IC50 is 1130 nM. Then `O=C1NCCn2nc(-c3ccnc(-c4nc5ccccc5s4)c3)cc21` [Example 104, 2-[2-(1,3-benzothiazol-2-yl)pyndin-4-yl]-6,7-dihydropyrazolo[1,5-a]pyrazin-4(5H)-one], with 4270 nM; and `O=C1NCCn2nc(-c3ccnc(-n4cnc(-c5ccccc5)c4)c3)cc21` [Example 117, 2-[2-(4-phenyl-1H-imidazol-1-yl)pyridin-4-yl]-6,7-dihydropyrazolo[1,5-a]pyrazin-4(5H)-one], with 7040 nM; and `O=C1NC(CO)Cn2nc(-c3ccnc(C4CNc5ccccc5C4)c3)cc21` (stereo not shown) [Example 107, 6-(hydroxymethyl)-2-[2-(1,2,3,4-tetrahydroquinolin-3-yl)pyridin-4-yl]-6,7-dihydropyrazolo[1,5-a]pyrazin-4(5H)-one], with 4900 nM.

Turning to `O=Cc1c[nH]c2ccc(-c3cc(-c4cc5n(n4)CCNC5=O)ccn3)cc12` [Example 53, hydrochloride], the IC50 stood at 923 nM. On to `O=C1NCCn2nc(-c3ccnc(-c4ccc(OC(F)(F)F)cc4)c3)cc21` [Example 149, 2-{2-[4-(trifluoromethoxy)phenyl]pyridin-4-yl}-6,7-dihydropyrazolo[1,5-a]pyrazin-4(5H)-one trifluoroacetate], for which the IC50 came to 131000 nM. On to `NCC1Cn2nc(-c3ccnc(-c4cnc5ccccc5c4)c3)cc2C(=O)N1` (stereo not shown) [Example 3, trifluoroacetate], for which the IC50 is 47.7 nM. As for `O=C1NCCCn2nc(-c3ccnc(-c4cnc5ccccc5c4)c3)cc21` [Example 39, trifluoroacetate], the figure is 577 nM.
